# Data as given in patent publication US20250360113A1, “ADMINISTRATION OF DHB TO INCREASE BENEFIT OF LOSING WEIGHT OF INTERMITTENT FASTING” (NANJING NUTRABUILDING BIO-TECH CO., LTD., priority 2023, published 2025).
# Legend:
# [1] = Insulin tolerance test (ITT); assay type: in vivo, C57BL/6 male mice; details: HFD obese mice
# Experimental: (§1) 50 C57BL/6 male mice aged about 8 weeks, are randomly assigned to five study groups (GA, GB1, GB2, GB3, GB4) of ten mice each (one cage, n=5 per condition). Mice were maintained in a pathogen free condition under a strict 12 h light/dark cycle (0600/1800 h) with 12-15 cycles/hour of air change. Mice were provided with access to respective feed and water ad libitum as per experimental conditions. Mice were housed under controlled laboratory conditions of temperature and humidity at 23±2° C. and 50±10% RH, respectively. Each study group consisted of ten animals, and treatment details of the individual study groups are given below: • Group A (GA, NC): Normal mice, maintained on normal diet (standard chow, 12% calories from fat; 23% calories from protein and 65% calories from carbohydrates) for 8 weeks, receiving neither EODF nor DHB treatment. • Group B1 (GB1): Obese mice, maintained on high fat diet (HFD, 60% calories from fat, 20% calories from protein, 20% calories from carbohydrate) for 8 weeks, receiving neither EODF nor DHB treatment. • Group B2 (GB2): Obese mice, maintained on HFD for 8 weeks, receiving only EODF and no DHB treatment. • Group B3 (GB3): Obese mice, maintained on HFD for 8 weeks, receiving only DHB treatment and no EODF. • Group B4 (GB4): Obese mice, maintained on HFD for 8 weeks, receiving DHB treatment and EODF combination. DHB was administered daily via intragastric injection (i.g.) according to a level of 70 mg/kg body weight. Mice not receiving DHB were given orally with ultrapure water. Insulin tolerance test (ITT): To measure insulin levels in blood, ITT were measured in the 6-h fasting mice (NC and HFD groups) by using a glucose analyzer. The glucose concentrations were measured by venous bleeding at 0, 15, 30, 60 and 120 min after an i.p. injection of human insulin at 0.75 U/kg. Towards the end of the final week of the study, ITT was performed for all mice (NC and HFD groups).
# [2] = in vitro; cited from earlier work
# [3] = Plasma TCHO, TG, LDL, VLDL measured with kits at end of study; assay type: in vivo, C57BL/6 male mice; details: HFD obese mice, DHB 70 mg/kg i.g. daily with or without EODF vs no DHB
# Experimental: as §1, with “At” for “Insulin tolerance test (ITT): To measure insulin levels in blood, ITT were measured in the 6-h fasting mice (NC and HFD groups) by using a glucose analyzer. The glucose concentrations were measured by venous bleeding at 0, 15, 30, 60 and 120 min after an i.p. injection of human insulin at 0.75 U/kg. Towards”, “study blood was collected from all test groups and a various clinical parameter: plasma total cholesterol (TCHO), triglyceride (TG), low density lipoprotein (LDL), very low-density lipoprotein (VLDL) were measured using corresponding kits according to” for “final week of”, “manufacturers' instructions.” for “study, ITT was performed for all mice (NC and HFD groups).”
# [4] = Oral glucose tolerance test (OGTT); assay type: in vivo, C57BL/6 male mice; details: HFD obese mice
# Experimental: 50 C57BL/6 male mice aged about 8 weeks, are randomly assigned to five study groups (GA, GB1, GB2, GB3, GB4) of ten mice each (one cage, n=5 per condition). Mice were maintained in a pathogen free condition under a strict 12 h light/dark cycle (0600/1800 h) with 12-15 cycles/hour of air change. Mice were provided with access to respective feed and water ad libitum as per experimental conditions. Mice were housed under controlled laboratory conditions of temperature and humidity at 23±2° C. and 50±10% RH, respectively. Each study group consisted of ten animals, and treatment details of the individual study groups are given below: • Group A (GA, NC): Normal mice, maintained on normal diet (standard chow, 12% calories from fat; 23% calories from protein and 65% calories from carbohydrates) for 8 weeks, receiving neither EODF nor DHB treatment. • Group B1 (GB1): Obese mice, maintained on high fat diet (HFD, 60% calories from fat, 20% calories from protein, 20% calories from carbohydrate) for 8 weeks, receiving neither EODF nor DHB treatment. • Group B2 (GB2): Obese mice, maintained on HFD for 8 weeks, receiving only EODF and no DHB treatment. • Group B3 (GB3): Obese mice, maintained on HFD for 8 weeks, receiving only DHB treatment and no EODF. • Group B4 (GB4): Obese mice, maintained on HFD for 8 weeks, receiving DHB treatment and EODF combination. DHB was administered daily via intragastric injection (i.g.) according to a level of 70 mg/kg body weight. Mice not receiving DHB were given orally with ultrapure water. Oral glucose tolerance test (OGTT): To measure glucose levels in blood, GTT were implemented in the mice (NC and HFD groups) after overnight by using a glucose analyzer. The glucose concentrations were measured in blood collected by venous bleeding from the tail vein immediately at 0, 15, 30, 60 and 120 min after administered glucose at 2 g/kg orally. Towards the end of the final week of the study, GTT was also performed for all mice (NC and HFD groups).
# [5] = DHB 70 mg/kg i.g. daily vs no DHB with and without EODF, FIGS. 11-14
# [6] = DHB + EODF combination vs EODF only
smiles,measurement,setting,value
"COc1ccc2c(c1OC)CN1CCc3cc4c(cc3C1=C2)OCO4 [DHB, Dihydroberberine]",insulin levels,[1]; [5],greater reduction
same,improving the insulin tolerance,[1]; [6],greater effects
same,reducing the insulin levels,[1]; [6],greater effects
same,insulin tolerance,"[1]; human insulin 0.75 U/kg i.p., DHB vs no DHB with and without EODF",better
same,intestinal absorption rate relative to BBR,[2],five times higher
same,TG,[3]; FIG. 5,lower levels
same,TCHO,[3]; FIG. 6,lower levels
same,LDL,[3]; FIG. 7,lower levels
same,VLDL,[3]; FIG. 8,lower levels
same,blood glucose levels,[4]; [5],greater reduction
same,improving the glucose tolerance,[4]; [6],greater effects
same,reducing the blood glucose levels,[4]; [6],greater effects
same,glucose tolerance,"[4]; glucose 2 g/kg orally, DHB vs no DHB with and without EODF",better
